# ± gives the expanded uncertainty stated by the source.
# Assay: activity coefficient (dimensionless); of the first substance listed, at infinite dilution; xn = mol fraction of the nth substance listed
# Settings: 100 kPa, Liquid, Chromatography, x1 = 0
SMILES,activity coefficient (308.15 K),activity coefficient (318.15 K),activity coefficient (328.15 K),activity coefficient (338.15 K),activity coefficient (348.15 K),activity coefficient (358.15 K),activity coefficient (368.15 K)
CCCCCCC [heptane] + CCCC[n+]1ccc(C#N)cc1.O=S(=O)([N-]S(=O)(=O)C(F)(F)F)C(F)(F)F,45.8 ± 4,42.5 ± 3.7,39.8 ± 3.4,37.4 ± 3.2,35.3 ± 3.1,33.5 ± 2.9,31.7 ± 2.7
C=CCCCC [hex-1-ene] + CCCC[n+]1ccc(C#N)cc1.O=S(=O)([N-]S(=O)(=O)C(F)(F)F)C(F)(F)F,14.1 ± 1.2,13.8 ± 1.2,13.5 ± 1.2,13.2 ± 1.1,12.9 ± 1.1,12.7 ± 1.1,12.5 ± 1.1
CCCCCC [hexane] + CCCC[n+]1ccc(C#N)cc1.O=S(=O)([N-]S(=O)(=O)C(F)(F)F)C(F)(F)F,33 ± 2.9,30.7 ± 2.7,28.8 ± 2.5,27.1 ± 2.3,25.6 ± 2.2,24.2 ± 2.1,23.1 ± 2
CC(C)c1ccccc1 [isopropylbenzene] + CCCC[n+]1ccc(C#N)cc1.O=S(=O)([N-]S(=O)(=O)C(F)(F)F)C(F)(F)F,4.04 ± 0.35,4.13 ± 0.36,4.22 ± 0.36,4.31 ± 0.37,4.39 ± 0.38,4.47 ± 0.39,4.56 ± 0.39
CO [methanol] + CCCC[n+]1ccc(C#N)cc1.O=S(=O)([N-]S(=O)(=O)C(F)(F)F)C(F)(F)F,1.33 ± 0.11,1.27 ± 0.11,1.21 ± 0.1,1.17 ± 0.1,1.12 ± 0.09,1.08 ± 0.09,1.05 ± 0.09
CCCC(=O)OC [methyl butanoate] + CCCC[n+]1ccc(C#N)cc1.O=S(=O)([N-]S(=O)(=O)C(F)(F)F)C(F)(F)F,1.15 ± 0.1,1.22 ± 0.1,1.28 ± 0.11,1.35 ± 0.11,1.42 ± 0.12,1.48 ± 0.13,1.55 ± 0.13
COC(C)=O [methyl ethanoate] + CCCC[n+]1ccc(C#N)cc1.O=S(=O)([N-]S(=O)(=O)C(F)(F)F)C(F)(F)F,0.607 ± 0.053,0.646 ± 0.056,0.685 ± 0.059,0.724 ± 0.061,0.762 ± 0.064,0.8 ± 0.067,0.839 ± 0.07
CCC(=O)OC [methyl propanoate] + CCCC[n+]1ccc(C#N)cc1.O=S(=O)([N-]S(=O)(=O)C(F)(F)F)C(F)(F)F,0.8 ± 0.067,0.855 ± 0.071,0.905 ± 0.075,0.956 ± 0.079,1.01 ± 0.08,1.06 ± 0.09,1.11 ± 0.09
CC1CCCCC1 [methylcyclohexane] + CCCC[n+]1ccc(C#N)cc1.O=S(=O)([N-]S(=O)(=O)C(F)(F)F)C(F)(F)F,23.4 ± 2,21.8 ± 1.9,20.4 ± 1.8,19.1 ± 1.7,18 ± 2,17.1 ± 1.5,16.2 ± 1.4
CCCCCCCCC [nonane] + CCCC[n+]1ccc(C#N)cc1.O=S(=O)([N-]S(=O)(=O)C(F)(F)F)C(F)(F)F,92.9 ± 8,85.9 ± 7.4,79.8 ± 6.9,74.1 ± 6.4,69.4 ± 6,65.3 ± 5.7,61.5 ± 5.3
C=CCCCCCC [oct-1-ene] + CCCC[n+]1ccc(C#N)cc1.O=S(=O)([N-]S(=O)(=O)C(F)(F)F)C(F)(F)F,31.7 ± 2.7,30.1 ± 2.6,28.6 ± 2.5,27.3 ± 2.4,26.3 ± 2.3,25.3 ± 2.2,24.3 ± 2.1

# — the NIST ThermoML archive (doi:10.1016/j.jct.2016.01.017)
